The text below walks through data of ChEMBL document CHEMBL1151361, “Soularubinone, a new antileukemic quassionoid from Soulamea tomentosa” (1981).

What is called T/C is the result in the treated group divided by that in the control group, in per cent.

Common to all, as to format: functional
The test system of experiment [1] is P388. As to the kind of experiment: In vivo antitumor activity against mouse P388 cells at 2 mg/kg relative to control.
For experiment [2], the system named is P388. Briefly: In vivo antitumor activity against mouse P388 cells at 0.5 mg/kg relative to control.
For experiment [3], the system named is P388. Briefly: In vivo antitumor activity against mouse P388 cells at 9 mg/kg relative to control.
Experiment [4] has as its system P388. As to the kind of experiment: In vivo antitumor activity against mouse P388 cells at 4 mg/kg relative to control.

As to `CCC(C)C(=O)O[C@H]1C(=O)O[C@@H]2C[C@H]3C(C)=CC(=O)[C@@H](O)[C@]3(C)[C@H]3[C@]4(O)OC[C@]32[C@@H]1[C@@H](C)[C@H]4O` (some centres undefined) [AILANTHINONE], the T/C in experiment [1] is listed as 148%.
Compound `CC[C@](C)(O)C(=O)O[C@H]1C(=O)O[C@@H]2C[C@H]3C(C)=CC(=O)[C@@H](O)[C@]3(C)[C@H]3[C@@]4(O)OC[C@]32[C@@H]1[C@@H](C)[C@H]4O` [GLAUCARUBINONE] returned a T/C in experiment [2] of 231%.
On to `CC(=O)O[C@H]1C(=O)O[C@@H]2C[C@H]3C(C)=CC(=O)[C@@H](O)[C@]3(C)[C@H]3[C@]4(O)OC[C@]32[C@@H]1[C@@H](C)[C@H]4O` [HOLACANTHONE], for which, in experiment [3], the T/C is on record as 159%.
The compound `CC1=CC(=O)[C@@H](O)[C@]2(C)[C@H]3[C@]4(O)OC[C@]35[C@H]([C@@H](C)[C@H]4O)[C@@H](OC(=O)CC(C)(C)O)C(=O)O[C@@H]5C[C@@H]12` [SOULARUBINONE] displayed a T/C in experiment [4] of 137%.
